Test results published in US6534282B2, “Detection of hypertension using immunoreactive metabolic products” (priority 1999, dated 2003).

Tests used:
AA epoxygenase [1] = experiment: AA oxygenase activity assay of hepatic microsomes using 14C AA, from treated rats; assay type: in vivo, rat; conditions: hepatic microsomes of rats treated i.p. 10 mg/kg/d for 4 days; incubation 10 min
Description: (§1) Male and female Sprague-Dawley (SD) rats (160-200 g) were purchased from Charles River Laboratories (Wilmington, Mass.) and housed in a controlled environment and fed standard laboratory chow for at least 3 days before use.
Microsomes were prepared from rat livers and kidneys as described previously (27,28). Microsomes were stored at −80° C. in 50 mM Tris acetate buffer, pH 7.4, containing 1 mM EDTA and 20% glycerol until use.
After incubation of the microsomes (1 mg protein/ml, final concentration), 0.05 M Tris-HCl buffer, pH 7.5, containing 0.15 m KCl, 10 mM MgC12, 8 mM sodium isocitrate and 0.5 IU of isocitrate dehydrogenase and, incubated with ^14C AA (1 μCi/μmol, 100 μM, final concentration) in the presence of 1 mM NADPH at 30° C. The reaction products were taken at five and ten minutes and extracted into ethyl ether containing 0.05% acetic acid. The AA oxygenase metabolites were separated by HPLC and quantitated by a radiomatic Flo-One β-detector.
The reaction products were taken at 5 and 10 min. and extracted into ethyl ether containing 0.05% acetic acid). The AA oxygenase metabolites were separated by HPLC and quantitated by a radiomatic Flo-One B-detector.

CYP2C23 = experiment: Western blot of hepatic microsomes for CYP2C23; assay type: in vivo, rat; conditions: after 4 days of treatment, 10 mg/kg/day i.p., FIG. 4
Description: as §1
SDS-PAGE was carried out on 10% acrylamide gel. The separated proteins were electroblotted onto cellulose membrane and Western blot analyses were carried out using alkaline phosphatase system as previously described (29). Visualization of P450 bands was accomplished by incubation with a mixture of 5-bromo4-chloro-3-indolylphosphatate p-toluidine and nitrobluetetrazolium.

anti-14,15-DHET IgG = experiment: Specificity of the 14,15-DHET competitive ELISA (eicosanoid panel); assay type: binding, goat; conditions: for cross-reaction with anti-14,15-DHET / cross-reaction with anti-14,15-DHET (in words): 14,15-DHET ELISA; for cross-reactivity relative to 14,15-DHET: competition with 14,15-DHET for anti-14,15-DHET IgG in ELISA
Description: Synthetic 14, 15- or 8,9-DHETs were coupled to KLH using dicyclohexylcarbodiimide as previously described (25). The conjugate was used to immunize a goat and antibody titers were determined by ELISA using DHET-conjugated bovine serum albumin (BSA).
High-binding microplates were coated with protein G-purified IgG suspended in 1M carbonate, pH 9.0, (1 μg/well; 200 μl/well final volume) and then covered with paraflim. After overnight incubation at room temperature, the wells were gently washed five times with tris buffered saline (TBS), pH 7.5, containing 0.1% tween. Non-specific sites were blocked by the addition of 0.2 ml of 5% (w/v) nonfat dry milk in TBS. After two hours of incubation at room temperature, they were washed three times with TBS-tween. One μg/well of purified IgG was sufficient for quantitation of 0.5 to 100 pg/well of 14,15- or 8,9-DHETs. Samples and standards (150 μL) were added and the plates incubated for 20 minutes, after which 15 ng of the DHET-HRP conjugate was added in 50 μL of TBS. Following incubation for one hour to permit competitive binding to bound antibody, unbound material was removed by thorough washing of the wells with TBS-tween, and 150 μL of a colorimetric substrate for HRP [3,3′,5,5′ tetramethylbenzidine (TMB) and hydrogen peroxide] (Sigma Co.) was added. The plate is then incubated for 20 minutes, the reaction stopped by addition of 75 μL of 1N H2SO4, and the absorbance at 450 nm was determined using a microtiter plate reader. Under these assay conditions, the amount of color in a well is inversely proportional to the initial concentration of the sample or a standard ligand.
The specificity of the 14,15-DHET ELISA was investigated using authentic DHET and a panel of eicosanoids (Table 5) which, based on their structure, might be anticipated to compete with 14,15-DHET for binding to antibodies against 14,15-DHET. […] There was a slight cross-reaction with 8,9- and 11,12-DHET (3.3% for both).
A listing of the panel of eicosanoids used to analyze the specificity of the 14,15-DHET ELISA. These eicosanoids were selected based on the similarity of their structure to 14,15-DHET, as being anticipated to potentially compete with 14,15-DHET for binding to anti-14,15-DHET and thus interfere with such assays.

AA epoxygenase [2] = conditions: rats; cited from earlier work

Structure (SMILES)	cross-reactivity relative to 14,15-DHET (anti-14,15-DHET IgG)	cross-reaction with anti-14,15-DHET (in words) (anti-14,15-DHET IgG)	other results
C[C@@H]1C[C@H]2[C@@H]3CCC4=CC(=O)C=C[C@]4(C)[C@@]3(F)[C@@H](O)C[C@]2(C)[C@@]1(O)C(=O)CO [DEX, dexamethasone]			11,12-EET formed (AA epoxygenase [1]): 73 ng EET formed/mg protein; 14,15-EET formed (AA epoxygenase [1]): 97 ng EET formed/mg protein; hepatic CYP2C23 protein level (CYP2C23): decreased dramatically
CCCCC/C=C\CC(O)C(O)C/C=C\C/C=C\CCCC(=O)O (stereo not shown) [11,12-DHET]	3.30%		cross-reaction with anti-14,15-DHET (anti-14,15-DHET IgG): 3.3%
CCCCC[C@H](O)/C=C/[C@@H]1[C@@H](CC(=O)CCCCC(=O)O)[C@@H](O)C[C@H]1O [6-keto-PGF1α]	<0.01%	did not cross-react	
CCCCC/C=C\C/C=C\C/C=C\CC(O)C(O)CCCC(=O)O (stereo not shown) [5,6-DHET]	0.02%	did not cross-react	
CCCCC[C@H](O)/C=C/[C@@H]1[C@@H](C/C=C\CCCC(=O)O)[C@@H](O)C[C@H]1O [PGF2α]	<0.01%	did not cross-react	
CCCCC/C=C\C[C@H]1O[C@H]1C/C=C\C/C=C\CCCC(=O)O [11,12-EET]	0.05%	did not cross-react	
CCCCCC=CCC=CCC(O)C(O)CC=CCCCC(=O)O (stereo not shown) [8,9-DHET, 8,9-dihydroxyeicosatrienoic acid]	3.30%		cross-reaction with anti-14,15-DHET (anti-14,15-DHET IgG): 3.3%
CCCCC[C@H](O)/C=C/[C@H]1[C@H](O)CC(=O)[C@@H]1C/C=C\CCCC(=O)O [PGE2]	<0.01%	did not cross-react	
CCCCC[C@H](O)/C=C/C=C\C/C=C\C/C=C\CCCC(=O)O [15(S)HETE]	1.00%	did not cross-react	
Clc1ccccc1C(c1ccccc1)(c1ccccc1)n1ccnc1 [clotrimazole]			blood pressure effect (AA epoxygenase [2]): induced salt-sensitive and clotrimazoledependent hypertension; urinary excretion of Na+, EETs and DHETs (AA epoxygenase [2]): decreased
CCCCC/C=C\C/C=C\C/C=C\C/C=C\CCCC(=O)O [arachidonic acid]	0.05%	did not cross-react	
CCCCC[C@H](O)/C=C/[C@H]1OC(O)C[C@H](O)[C@@H]1C/C=C\CCCC(=O)O (stereo partly shown) [Thromboxane B2]	0.02%	did not cross-react	
CCCCC[C@H](O)/C=C/C=C\C/C=C\C=C\[C@@H](O)CCCC(=O)O [5(s)15(S)DiHETE]	0.20%	did not cross-react	
CCCCCC1OC1C/C=C\C/C=C\C/C=C\CCCC(=O)O (stereo not shown) [14,15-EET]	1.50%	did not cross-react	
CCCCCC(O)C(O)CC=CCC=CCC=CCCCC(=O)O (stereo not shown) [14,15-DHET, 14,15-dihydroxyeicosatrienoic acid]	100.00%		
CCCCC/C=C\C/C=C\C/C=C\CC1OC1CCCC(=O)O (stereo not shown) [5,6-EET]	0.02%	did not cross-react	
CCCCC/C=C\C/C=C\CC1OC1C/C=C\CCCC(=O)O (stereo not shown) [8,9-EET]	0.40%	did not cross-react	
